Among the data in ChEMBL document CHEMBL1649203, “Pharmacokinetics and safety of famciclovir in children with herpes simplex or varicella-zoster virus infection” (Antimicrob Agents Chemother, 2009) are AUC values, retold here.

Series [1] relates to Homo sapiens. As to the kind of experiment: AUC (0 to last) in healthy human at 500 mg, po administered as single dose. The following applies: in vivo. In kind it is ADME, organism-based, Plasma. Also noted: dose 500 mg, time 0 - last, route oral.
Series [2] concerns Homo sapiens. As to the kind of experiment: AUC (0 to infinity) in healthy human at 500 mg, po administered as single dose. The series is classed as ADME, organism-based, Plasma. Also noted: dose 500 mg, route oral, time infinity. The conditions noted are these: in vivo.

For `CC(=O)OCC(CCn1cnc2cnc(N)nc21)COC(C)=O` [FAMCICLOVIR], the figures for the AUC in the series with Homo sapiens [1] and in the series with Homo sapiens [2] were 8.54 ug/hr.ml and 8.94 ug/hr.ml, respectively.
